The values that follow come from PubChem BioAssay (NCI).

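Five concentrations, 48 hours, 96-well plates. At the GI50, growth is halved. TGI: concentration producing complete growth inhibition.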

Common to all, as to assay: NCI tumour cell line growth inhibition, 48 h
Assay [1] relates to 786-0 renal.
Assay [2] relates to HT29 colon.
Assay [3] relates to MALME-3M melanoma.
In assay [4] the test system is NCI/ADR-RES ovarian.
The test system of assay [5] is OVCAR-4 ovarian.
Assay [6] deals with SK-MEL-5 melanoma.
Assay [7] concerns TK-10 renal.
Assay [8] deals with UACC-257 melanoma.
Assay [9] concerns UACC-62 melanoma.
Assay [10] concerns UO-31 renal.

In the case of `O=C(CCCSc1nc(-c2ccccc2)cc(-c2ccc(Cl)cc2)n1)NO`, the GI50 is 1.47 µM in assay [1]; 2.47 µM in assay [2]; 2.7 µM in [3]; 0.351 µM in assay [4]; 1.12 µM in assay [5]; 2.26 µM in assay [6]. Further, the GI50 is 0.773 µM in assay [7], 2.92 µM in assay [8], 1.45 µM in assay [9] and 0.352 µM in assay [10]. Moreover, the TGI was determined as 13.3 µM in [1]; 13.2 µM in [2]; 12.1 µM in [3]; 2.58 µM in [4]; 14.4 µM in assay [5]; 5.45 µM in assay [6]. Moreover, the TGI came out at 12.3 µM in assay [7], 12.4 µM in assay [8], 3.89 µM in [9] and 2.1 µM in assay [10].

In the case of `CCCCNC(=O)NS(=O)(=O)c1ccc(N2N=C(c3cc(C)ccc3C)CC2c2cc(OC)c(OC)c(OC)c2)cc1` (stereo not given), the GI50 is 3.51 µM in [1]; 2.42 µM in [2]; 2.4 µM in [3]; 2.95 µM in [4]; 2.52 µM in assay [5]; 2.54 µM in [6]. The GI50 in assay [7] was 3.44 µM; in assay [8], 3.39 µM; in assay [9], 1.83 µM; in assay [10] it was 3.07 µM. In addition, the TGI in [1] was 16.1 µM; in assay [2] it was 5.04 µM; in [3], 6.83 µM; in assay [4], 11.4 µM; in assay [5], 14.5 µM; in [6], 7.01 µM. Besides, the TGI was found to be 10.7 µM in assay [7], 12.9 µM in [8], 4.27 µM in assay [9] and 12.3 µM in assay [10].

For `COc1cc(C(=O)/C=C/c2cccnc2Nc2ccccc2)cc(OC)c1OC`, the GI50 in [1] was 1.29 µM; in assay [2], 0.514 µM; in assay [3] it was 1.92 µM; in assay [4] it was 1.03 µM; in assay [5], 1.45 µM; in assay [6] it was 1.34 µM. For the same compound, the GI50 in assay [7] is 1.82 µM; in assay [8], 1.51 µM; in [9] it was 1.29 µM; in assay [10], 1.19 µM. The TGI in assay [1] is 2.65 µM; in assay [2], 2.15 µM; in [3], 3.84 µM; in assay [4], 4.56 µM; in assay [5] it was 2.76 µM; in assay [6], 2.64 µM. For the same compound, the TGI was 3.33 µM in assay [7], 2.86 µM in [8], 2.6 µM in [9] and 2.57 µM in [10].

For `O=C(COc1cccc(/C=C2\COc3ccc(Cl)cc3C2=O)c1)c1ccc(Cl)cc1`, the GI50 is 16.1 µM in assay [1]; 7.69 µM in [2]; 17.9 µM in assay [3]; 20.5 µM in assay [4]; 14.9 µM in assay [5]; 12.8 µM in assay [6]. In addition, the GI50 in assay [7] is 15.1 µM; in assay [8], 18.5 µM; in assay [9], 11 µM; in [10], 5.13 µM. Also, the TGI in assay [1] came out at 29.7 µM; in assay [2], 20.2 µM; in [3], 34.2 µM; in assay [4], 69.6 µM; in assay [5], 31.5 µM; in assay [6], 25.3 µM. The TGI in assay [7] was 28.7 µM; in assay [8], 33.4 µM; in assay [9], 23.1 µM; in assay [10], 19.4 µM.

For the compound `c1ccc(CSc2nnc3c4ccccc4c4ccccc4c3n2)cc1`, the TGI was greater than 92.5 µM in [1]; greater than 100 µM in assay [2]; greater than 100 µM in assay [3]; greater than 100 µM in assay [4]; greater than 96.3 µM in assay [5]; greater than 100 µM in assay [6]. Further, the TGI is 84.5 µM in [7], greater than 100 µM in [8], greater than 100 µM in [9] and greater than 100 µM in assay [10].

As for `CC1(C)CC[C@]2(C(=O)N3CCOCC3)CC[C@]3(C)C(=CC[C@@H]4[C@@]5(C)C/C(=C/c6ccncc6)C(=O)C(C)(C)[C@@H]5CC[C@]43C)[C@@H]2C1`, the GI50 is 1.66 µM in [1]; 0.912 µM in assay [2]; 1.57 µM in assay [3]; 2.5 µM in assay [4]; 2.34 µM in assay [5]; 1.48 µM in assay [6]. The GI50 in assay [7] was 6.46 µM; in assay [8] it was 3.68 µM; in [9], 1.36 µM; in [10], 0.893 µM. Also, the TGI in assay [1] was 12.4 µM; in assay [2], 54.5 µM; in assay [3], 4.59 µM; in assay [4], 46.4 µM; in [5], greater than 100 µM; in assay [6], 3.01 µM. In addition, the TGI in assay [7] was greater than 100 µM; in [8], greater than 100 µM; in assay [9] it was 40.9 µM; in assay [10] it was 14.2 µM.

As for `O=C(c1cccnc1)c1cc(-c2ccccn2)c(=O)n2ccccc12`, the GI50 in [1], in assay [2], in assay [3], in [4], in assay [5] and in assay [6] was greater than 100 µM in each case. For the same compound, the GI50 in assay [7], in assay [8], in assay [9] and in [10] was greater than 100 µM in each case. The TGI in [1], in assay [2], in [3], in assay [4], in assay [5] and in assay [6] was greater than 100 µM each time. The TGI in [7], in [8], in assay [9] and in assay [10] was greater than 100 µM in each case.

Consider `Cn1cc(-c2ccc(-c3cn(C)c4ccc(Cl)cc34)s2)c2cc(Cl)ccc21`, for which the GI50 in [1], in assay [2], in [3], in [4], in assay [5] and in assay [6] was greater than 100 µM throughout. The GI50 in [7], in [8], in [9] and in [10] was greater than 100 µM throughout. The TGI in assay [1], in [2], in assay [3], in [4], in assay [5] and in assay [6] was greater than 100 µM throughout. In addition, the TGI in [7], in assay [8], in assay [9] and in assay [10] was greater than 100 µM each time.
